# In patent US20080015181A1, “Pharmaceutical Compositions Comprising Droxidopa” (Chelsea Therapeutics, Inc., priority 2006, published 2008):
# Columns and labels:
# plasma norepinephrine = assay: Plasma norepinephrine concentration after dosing of droxidopa or droxidopa combinations in rats; assay type: in vivo, male Sprague Dawley rats; settings: 2 hours post-dosing, rat
# Procedure: The pharmacokinetic properties of droxidopa combinations according to the invention were evaluated in male Sprague Dawley rats. Four test groups with four rats in each group were established. Group 1 was administered droxidopa alone as a baseline group. Group 2 was administered droxidopa in combination with the COMT inhibitor entacapone. Group 3 was administered droxidopa in combination with the cholinesterase inhibitor pyridostigmine. Group 4 was administered droxidopa in combination with the MAOI nialamide. For each group, the droxidopa or droxidopa combination was formulated with a vehicle formed of a water solution containing 1% carboxymethylcellulose with 0.2% TWEEN® 80 emulsifier. […] The amounts of entacapone, pyridostigmine, and nialamide used in formulations 2-7 were provided as “low” doses and “high” doses based upon disclosure in the literature of generally accepted dosage ranges for their respective known indications.
# Rats in each group were given a single gavage dose of droxidopa alone or the droxidopa combination, the time of dosing being recorded as time=0. Dosing was based upon the weight of the subject and was adjusted to provide all test subjects a droxidopa dose of approximately 100 mg per kg of body weight. Blood samples (approximately 100 μL) were collected at approximately 5, 15, and 30 minutes, and at approximately 1, 2, 4, 8, and 24 hours after dosing. […]
# MAO-A than MAO-B = settings: known; cited from earlier work
# [1] = compound co-administered with droxidopa, relative to droxidopa alone; rat
# Procedure: The pharmacokinetic properties of droxidopa combinations according to the invention were evaluated in male Sprague Dawley rats. Four test groups with four rats in each group were established. Group 1 was administered droxidopa alone as a baseline group. Group 2 was administered droxidopa in combination with the COMT inhibitor entacapone. Group 3 was administered droxidopa in combination with the cholinesterase inhibitor pyridostigmine. Group 4 was administered droxidopa in combination with the MAOI nialamide. For each group, the droxidopa or droxidopa combination was formulated with a vehicle formed of a water solution containing 1% carboxymethylcellulose with 0.2% TWEEN® 80 emulsifier.
# Rats in each group were given a single gavage dose of droxidopa alone or the droxidopa combination, the time of dosing being recorded as time=0. Dosing was based upon the weight of the subject and was adjusted to provide all test subjects a droxidopa dose of approximately 100 mg per kg of body weight. […]
# As a standard, plasma droxidopa concentration in rats administered the drug vehicle with no droxidopa or droxidopa combinations present was also evaluated, and no droxidopa was detected over a 24 hour period in plasma from the rats administered the vehicle alone. Likewise, no droxidopa was detected in any subjects prior to dosing of the droxidopa or droxidopa combinations. […]
smiles,measurement,setting,value
"CCN(CC)C(=O)/C(C#N)=C/c1cc(O)c(O)c([N+](=O)[O-])c1 [entacapone, [(E)-2-cyano-N,N-diethyl-3-(3,4-dihydroxy-5-nitrophenyl)propenamide]]",plasma norepinephrine concentration in relation to treatment with droxidopa alone (in words),plasma norepinephrine; compound combined with droxidopa,increased plasma norepinephrine concentration beyond the effect of droxidopa alone
"NC(C(=O)O)C(O)c1ccc(O)c(O)c1 (stereo not drawn) [droxidopa, threo-3-(3,4-dihydroxyphenyl)serine]",increase in plasma norepinephrine concentration,plasma norepinephrine; droxidopa alone versus vehicle alone,~5 fold
O=C(NCCN1CCOCC1)c1ccc(Cl)cc1 [moclobemide],selectivity for MAO-A than MAO-B,MAO-A than MAO-B,approximately three times more selective for MAO-A than MAO-B
"CN(C)C(=O)Oc1ccc[n+](C)c1 [pyridostigmine, 3-dimethylcarbamoyloxy-1-methylpyridinium]",effect on droxidopa half-life (in words),[1],increase in droxidopa half-life
